Experimental data from PMC12458691 (Inorganic Chemistry, 2025).
Where two headings read alike, the source gives them in different places. Marks after values point to notes of the source that are not given here.

How the values were obtained:
[1] = Stability constants and speciation of Fe2+ complexes by potentiometric measurements; format: physicochemical; details: for pFe: calculated for theoretical solutions
Description: (§1) Caution! Perchlorate salts are explosive and should be handled with care; such compounds should never be heated as solids. The potentiometric titrations were carried out at 298.1 ± 0.1 K using 0.15 M NaClO4 as the supporting electrolyte. The experimental procedure (buret, potentiometer, cell, stirrer, microcomputer, etc.) has been fully described elsewhere. The acquisition of raw potentiometric data was performed with the computer program PASAT. The reference electrode was a Ag/AgCl electrode in a saturated KCl solution. The glass electrode was calibrated as a hydrogen-ion concentration probe by titration of previously standardized amounts of HCl with CO2-free NaOH solutions, and the equivalent point was determined by Gran’s method, , which gives the standard potential, E̊, and the ionic product of water (pK w = 13.73(1)). The computer program […] was used to calculate the protonation and stability constants. The HYSS program was used to obtain the distribution diagrams. The pH range investigated by using this technique was 2.5–11.0, in accordance with the linear response range of glass electrodes. The solutions were extensively deaerated with an argon flow before the potentiometric runs. A moderate argon flow was maintained throughout the course of the titrations. The different titration curves for each system (at least two) were treated either as a single set or as separate curves without significant variations in the values of the stability constants. Finally, the sets of data were merged and treated simultaneously to give the final stability constants.

[2] = Stability constants and speciation of Cu2+ complexes by potentiometric measurements; format: physicochemical; details: for pCu: calculated for theoretical solutions
Description: as §1

[3] = McCord–Fridovich nitroblue tetrazolium (NBT) SOD activity assay; format: biochemical
Description: First, the SOD activity of the complexes was studied by means of the nitroblue tetrazolium (NBT) method, also known as McCord–Fridovich method. This is a widely used, indirect method based on the side production of superoxide anions by the xanthine oxidase enzyme and their capture by the NBT dye to give formazan. − A compound displaying SOD activity decreases the flow of superoxide radical anions and, thereby, the production of formazan (see the representation of the fitting of the data in Figures and S13–S16). Thus, by following the absorption band of formazan at 560 nm, the SOD activity of the studied mimetic can be quantified. Blank experiments were recorded with the ligands alone without observing any effect. The values of IC50, defined as the amount of the compound necessary for achieving 50% inhibition of NBT reduction to formazan by the superoxide anion, together with the catalytic constants (k cat), were obtained as indicated in the Experimental Section and are summarized in Table .
The SOD-like activity was determined by using the nitroblue tetrazolium (NBT) method, which despite its limitations is frequently used to estimate the activity of SOD mimetics. − The assays were carried out in a pH = 7.4 50 mM HEPES buffer at 298 K. The xanthine (2.2 × 10^–4 M) and xanthine oxidase (ca. 3 UN) system was used to generate a reproducible and constant flux of superoxide anions. […] Data in the absence of the complex were used as a reference. […] The percentage of inhibition of the NBT reduction to formazan was used as a measure of the SOD activity of the compounds. The concentration of the complex required to yield 50% inhibition of NBT reduction (IC50) was determined from a plot of percentage inhibition versus complex concentration. The IC50 data were calculated from the mean values of (at least) three independent measurements. The catalytic constant was calculated from the IC50 using the equation k cat = k NBT[NBT]/IC50 where k NBT = (5.94 ± 0.5) × 10^4 M^–1 s^–1. −

[4] = Protonation constants by potentiometric and UV–vis titrations; format: physicochemical
Description: as §1
The solvents used were of spectroscopic or equivalent grade. Water was twice distilled and passed through a Millipore apparatus. The pH values were measured with a Metrohm 713 pH meter, and adjustments of the hydrogen-ion concentration of the solutions were made with diluted HCl and NaOH solutions. UV–vis absorption spectra were recorded between pH 2 and 11 with an Agilent 8453 spectrometer. The resulting data from the titrations were used to calculate the third protonation constant of ^ COOMe PyNMe 3 . For this, the HypSpec program was employed, considering all of the absorbance intensities in the range of 250 and 350 nm.

[5] = set-up: method as in earlier work; details: Table S3, 0.15 M NaClO4, 298.1 K; ref 1 of the SI; cited from earlier work
[6] = set-up: method as in footnotes c–f, numbers not given; details: Cu2+ complexes/salt/enzyme, literature data for comparison; ref footnotes c–f, numbers not given; cited from earlier work
[7] = Table S3, 0.15 M NaClO4, 298.1 K; ref 1 of the SI; cited from earlier work
[8] = Table S2, 0.15 M NaClO4, 298.1 K, ref 1 of the SI, cited from earlier work
[9] = set-up: method as in number not given; details: Mn2+ complexes of the ligands, recently reported; ref number not given; cited from earlier work
[10] = 0.15 M NaClO4, 298.1 K, potentiometry

Compound | log K, Fe2+ + L ⇄ [FeL]2+ (stability constant) [5] | log K, [FeL]2+ + H2O ⇄ [FeL(OH)] + H+ [5] | k cat (SOD catalytic constant) [6] | log K, [CuL(OH)]+ + H2O ⇄ [CuL(OH)2] + H+ [7] | log K, [CuL]2+ + H2O ⇄ [CuL(OH)]+ + H+ [7] | log K, H + HL ⇄ H2L (stepwise protonation constant) ([8]; potentiometry) | log K, H + L ⇄ HL (stepwise protonation constant) ([8]; potentiometry) | log β (∑log K, protonation) [8] | TON of catalase activity of the Mn2+ complexes [9] | other results
COC(=O)c1cc2nc(c1)CN(C)CCN(C)CCN(C)C2 [^ COOMe PyNMe 3] | – | – | – | – | – | – | – | – | – | log K, Fe+L⇄[FeL] (stability constant) ([1]; 0.15 M NaClO4, 298.1 K): 9.46(2); log K, [FeL]+H2O⇄[FeL(OH)]+H ([1]; 0.15 M NaClO4, 298.1 K): –8.18(5); pFe ([1]; pH 7.4, [L]=[M]=1 µM): 6.27; pFe ([1]; pH 7.4, [L]=[M]=10 µM): 5.66; log K, Cu+L⇄[CuL] (stability constant) ([2]; 0.15 M NaClO4, 298.1 K): 16.84(3); log K, [CuL]+H2O⇄[CuL(OH)]+H ([2]; 0.15 M NaClO4, 298.1 K): –8.26(4); pCu ([2]; pH 7.4, [L]=[M]=1 µM): 9.79; pCu ([2]; pH 7.4, [L]=[M]=10 µM): 9.29; SOD activity of the Fe2+ complexes (in words) ([3]; NBT method, under the conditions of this study): negligible SOD activity; k cat (SOD catalytic constant) ([3]; metal complexes, calculated from IC50 as kNBT[NBT]/IC50, pH 7.4, [NBT] = 59 μM): 40.3 10^6 M^–1 s^–1; increase in the SOD catalytic constant of the Cu2+ complex on functionalization of the pyridine ([3]; relative to Cu2+ complexes of HPyNH3 or HPyNMe3): 34 fold; log K, H2L^(2+x)++H^+⇄H3L^(3+x)+ (stepwise protonation constant) ([4]; 0.15 M NaClO4, 298.1 K, obtained by UV–vis spectroscopic titration): 2.48(1) ^f; log K, HL^(1+x)++H^+⇄H2L^(2+x)+ (stepwise protonation constant) [4, 10]: 7.03(1); log K, L^x+H^+⇄HL^(1+x)+ (stepwise protonation constant) [4, 10]: 10.57(2); three protonation constants, span from first to third ([4]; potentiometric titrations (third constant of COOMePyNMe3 by UV)): 10.57 to 2.48 logarithmic units
c1cc2nc(c1)CNCCNCCNC2 [^ H PyNH 3] | 12.68(2) | -6.94(5) | 1.7 10^6 M^–1 s^–1 | -10.7(1) | -8.68(8) | 7.96(1) | 10.54(1) | 20.40 | 25–37 | log K, H + H2L ⇄ H3L (stepwise protonation constant) ([8]; potentiometry): 1.90(1)
CN1CCN(C)Cc2cccc(n2)CN(C)CC1 [^ H PyNMe 3] | 9.72(2) | -9.08(4) | 1.2 10^6 M^–1 s^–1 | -11.31(8) | -8.53(4) | 7.37(1) | 10.88(1) | 18.25 | – | log K, [FeL(OH)]+ + H2O ⇄ [FeL(OH)2] + H+ [5]: -10.58(5)
COc1cc2nc(c1)CNCCNCCNC2 [^ MeO PyNH 3] | – | – | – | – | – | – | – | – | 25–37 | –
Oc1cc2nc(c1)CNCCNCCNC2 [^ OH PyNH 3] | – | – | – | – | – | – | – | – | 25–37 | –
